Reference: US20220204498A1, “PYRIDO-PYRIMIDINYL COMPOUNDS AND METHODS OF USE” (Genentech, Inc., priority 2019, published 2022)

target: T1, IRE1α (Homo sapiens, UniProt O75460, D688N); test: IRE1α TR-FRET competition binding assay (IRE1α HTRF); details: His-tagged IRE1α kinase dead construct (KR, D688N) 0.25 nM; Alexa fluor 647-labeled ATP competitive probe 2 nM; one hour at room temperature; read-out: IRE1α (alpha) HTRF (IC50)
T1 construct: containing the kinase and RNase domains (KR, AA G547-1L977, D688N); made in house; host or cells: Sf9 insect cells
Description: Example 59. IRE1α TR-FRET Competition Binding Assay
To determine the affinity of compound binding to the kinase domain of IRE1α, a time-resolved fluorescence resonance energy transfer (TR-FRET) competition assay was used.
A His-tagged IRE1α kinase dead construct containing the kinase and RNase domains (KR, AA G547-1L977, D688N) was expressed in Sf9 insect cells. The purified protein (final concentration 0.25 nM) was pre-incubated with anti-His Europium labeled antibody (Life Technologies PV5596, final concentration 2 nM) for one hour at 4° C. in TR-FRET Assay Buffer (50 mM HEPES, pH 7.5, 10 mM MgCl2, 0.083 mM Brij 35, 1 mM DTT, and 0.1% bovine gamma globulin) prior to addition to test compounds. An Alexa fluor 647-labeled probe based on an ATP competitive inhibitor was added to a final concentration of 2 nM. Reactions were carried out for one hour at room temperature in a final volume of 20 μL in 384 well white ProxiPlates (Perkin Elmer 6008289). Binding of the probe to the IRE1α protein was detected in an Envision instrument (PerkinElmer) equipped with a TRF laser option and a LANCE/Delfia Dual/Bias D400/D630 mirror (Ex 347 nm, 1st Em 665 nm, 2nd Em 615 nm).

T1 sequence (O75460 547-977 D688N): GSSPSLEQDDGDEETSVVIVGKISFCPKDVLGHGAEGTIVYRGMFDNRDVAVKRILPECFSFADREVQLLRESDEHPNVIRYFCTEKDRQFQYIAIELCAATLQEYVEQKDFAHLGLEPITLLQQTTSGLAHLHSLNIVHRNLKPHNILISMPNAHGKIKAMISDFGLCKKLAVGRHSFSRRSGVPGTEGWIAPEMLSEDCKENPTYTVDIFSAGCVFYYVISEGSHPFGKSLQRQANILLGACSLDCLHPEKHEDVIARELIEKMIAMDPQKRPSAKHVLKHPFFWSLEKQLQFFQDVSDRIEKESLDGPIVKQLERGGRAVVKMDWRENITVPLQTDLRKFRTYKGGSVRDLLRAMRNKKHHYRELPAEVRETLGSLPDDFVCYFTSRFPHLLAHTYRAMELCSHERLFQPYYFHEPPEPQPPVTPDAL

Structure (SMILES)	IC50 [nM]
Cc1cc(-c2ccc3c(c2)CCS(=O)(=O)N3)nc2cnc(N[C@H]3CC[C@H](N(C)C)CC3)nc12 [Compound 151, 6-(2-(((1,4-trans)-4-(Dimethylamino)cyclohexyl)amino)-8-methylpyrido[3,2-d]pyrimidin-6-yl)-3,4-dihydro-1H-benzo[c][1,2]thiazine 2,2-dioxide]	39
CCc1cc(-c2ccc(NS(=O)(=O)Cc3ccc(S(C)(=O)=O)cc3)c(F)c2)nc2cnc(N[C@H]3CC[C@H](N(C)C)CC3)nc12 [Compound 152, N-(4-(2-(((1,4-trans)-4-(Dimethylamino)cyclohexyl)amino)-8-ethylpyrido[3,2-d]pyrimidin-6-yl)-2-fluorophenyl)-1-(4-(methylsulfonyl)phenyl)methanesulfonamide]	0.12
Cc1cc(-c2ccc(NS(=O)(=O)c3cccnc3)c(F)c2)nc2cnc(N[C@H]3CC[C@H](N(C)C)CC3)nc12 [Compound 154, N-[4-[2-[[(1,4-trans)-4-(Dimethylamino)cyclohexyl]amino]-8-methyl-pyrido[3,2-d]pyrimidin-6-yl]-2-fluoro-phenyl]pyridine-3-sulfonamide]	0.21
Cc1cc(-c2cc(F)c(NS(=O)(=O)c3ccccc3Cl)c(F)c2F)nc2cnc(N[C@H]3CC[C@H](N(C)C)CC3)nc12 [Compound 155, 2-Chloro-N-(4-(2-(((1,4-trans)-4-(dimethylamino)cyclohexyl)amino)-8-methylpyrido[3,2-d]pyrimidin-6-yl)-2,3,6-trifluorophenyl)benzenesulfonamide]	0.19
Cc1cc(-c2ccc(NS(=O)(=O)c3cccnc3C(F)(F)F)c(F)c2)nc2cnc(N[C@H]3CC[C@H](N(C)C)CC3)nc12 [Compound 157, N-[4-[2-[[(1,4-trans)-4-(Dimethylamino)cyclohexyl]amino]-8-methyl-pyrido[3,2-d]pyrimidin-6-yl]-2-fluoro-phenyl]-2-(trifluoromethyl)pyridine-3-sulfonamide]	0.23
Cc1cc(-c2ccc(NS(=O)(=O)c3ccccn3)c(F)c2)nc2cnc(N[C@H]3CC[C@H](N(C)C)CC3)nc12 [Compound 158, N-(4-(2-(((1,4-trans)-4-(Dimethylamino)cyclohexyl)amino)-8-methylpyrido[3,2-d]pyrimidin-6-yl)-2-fluorophenyl)pyridine-2-sulfonamide]	0.2
Cc1nc(NS(=O)(=O)c2ccccc2C#N)ccc1-c1cc(C)c2nc(N[C@H]3CC[C@H](N(C)C)CC3)ncc2n1 [Compound 159, 2-Cyano-N-(5-(2-(((1,4-trans)-4-(dimethylamino)cyclohexyl)amino)-8-methylpyrido[3,2-d]pyrimidin-6-yl)-6-methylpyridin-2-yl)benzenesulfonamide]	0.33

Continued by falling IC50, values first:

IC50 [nM]	Structure (SMILES)
3.3	Cc1cc(NS(=O)(=O)c2ccccc2Cl)ncc1-c1cc(C)c2nc(N[C@H]3CC[C@H](N(C)C)CC3)ncc2n1 [Compound 149, 2-Chloro-N-(5-(2-(((1,4-trans)-4-(dimethylamino)cyclohexyl)amino)-8-methylpyrido[3,2-d]pyrimidin-6-yl)-4-methylpyridin-2-yl)benzenesulfonamide]
0.18	Cc1cc(-c2ccc(NS(=O)(=O)c3cnccc3C(F)(F)F)c(F)c2)nc2cnc(N[C@H]3CC[C@H](N(C)C)CC3)nc12 [Compound 156, N-[4-[2-[[(1,4-trans)-4-(Dimethylamino)cyclohexyl]amino]-8-methyl-pyrido[3,2-d]pyrimidin-6-yl]-2-fluoro-phenyl]-4-(trifluoromethyl)pyridine-3-sulfonamide]
0.16	Cc1cc(-c2cc(F)c(NS(=O)(=O)Cc3ccc(F)cc3)c(F)c2F)nc2cnc(N[C@H]3CC[C@H](N(C)C)CC3)nc12 [Compound 153, N-(4-(2-(((1,4-trans)-4-(Dimethylamino)cyclohexyl)amino)-8-methylpyrido[3,2-d]pyrimidin-6-yl)-2,3,6-trifluorophenyl)-1-(4-fluorophenyl)methanesulfonamide]
0.15	Cc1cc(-c2ccc(NS(=O)(=O)c3ccccc3C#N)c(F)c2)nc2cnc(N[C@H]3CC[C@H](N(C)C)CC3)nc12 [Compound 150, 2-Cyano-N-[(1,4-trans)-4-[2-[[4-(dimethylamino)cyclohexyl]amino]-8-methyl-pyrido[3,2-d]pyrimidin-6-yl]-2-fluoro-phenyl]benzenesulfonamide]
